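Compound exposure: 48 hours, 5 concentrations, 96-well plates. GI50 is the concentration that inhibits growth by half. TGI marks complete inhibition of growth.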
Columns and labels:
Test in all cases: DTP human tumour cell line panel, 48 h
NCI-H226 lung = test system: NCI-H226 lung
OVCAR-3 ovarian = test system: OVCAR-3 ovarian
NCI-H522 lung = test system: NCI-H522 lung
COLO 205 colon = test system: COLO 205 colon
SF-268 CNS = test system: SF-268 CNS
SF-295 CNS = test system: SF-295 CNS
HCC-2998 colon = test system: HCC-2998 colon
LOX IMVI melanoma = test system: LOX IMVI melanoma
OVCAR-5 ovarian = test system: OVCAR-5 ovarian
NCI/ADR-RES ovarian = test system: NCI/ADR-RES ovarian

Q: Which results are given for `CC(C)C1CO[C@]2(C)CCC(=O)N12` (stereo partly specified)?
A: TGI (NCI-H226 lung): > 100 µM; TGI (OVCAR-3 ovarian): > 100 µM; TGI (NCI-H522 lung): > 100 µM; TGI (COLO 205 colon): > 100 µM; TGI (SF-268 CNS): > 100 µM; TGI (SF-295 CNS): > 100 µM

Q: How did the TGI (HCC-2998 colon) turn out when `O=S(=O)(NC1CCCCC1)c1ccc2c(c1)OCCOCCOCCOCCO2` was run?
A: > 100 µM

Q: And the TGI (NCI-H226 lung)?
A: > 100 µM

Q: And the TGI (LOX IMVI melanoma)?
A: > 100 µM

Q: And the TGI (NCI-H522 lung)?
A: > 100 µM

Q: What about the TGI (COLO 205 colon) of the same compound?
A: > 100 µM

Q: What about the TGI (SF-268 CNS) of the same compound?
A: > 100 µM

Q: What about the TGI (SF-295 CNS) of the same compound?
A: > 100 µM

Q: How did the TGI (NCI-H226 lung) turn out when `O=C(O)C(Cc1cnc[nH]1)N1C(=O)c2ccccc2C1=O` (stereo unspecified) was run?
A: > 100 µM

Q: What about the TGI (OVCAR-3 ovarian) of the same compound?
A: > 100 µM

Q: What about the TGI (LOX IMVI melanoma) of the same compound?
A: > 100 µM

Q: And the TGI (OVCAR-5 ovarian)?
A: > 100 µM

Q: And the TGI (NCI/ADR-RES ovarian)?
A: > 100 µM

Q: And the TGI (NCI-H522 lung)?
A: > 100 µM

Q: What about the TGI (COLO 205 colon) of the same compound?
A: > 100 µM

Q: And the TGI (SF-268 CNS)?
A: > 100 µM

Q: What about the TGI (SF-295 CNS) of the same compound?
A: 98.5 µM

Q: What does the source list for `C[N+]1=c2c3cccc4cccc(c(=O)n2CC1)c43`?
A: TGI (NCI-H226 lung): 28.7 µM; TGI (OVCAR-3 ovarian): 79.8 µM; TGI (LOX IMVI melanoma): 17.6 µM; TGI (OVCAR-5 ovarian): 33.5 µM; TGI (NCI-H522 lung): 24.4 µM; TGI (COLO 205 colon): 24.6 µM; TGI (SF-268 CNS): 35.1 µM; TGI (SF-295 CNS): 56.1 µM

Q: How did the TGI (HCC-2998 colon) turn out when `O=C1C2C(C(=O)N1c1ccccc1)C1c3ccccc3C2C2C(=O)N(c3ccccc3)C(=O)C21` (stereo unspecified) was run?
A: 24.7 µM

Q: And the TGI (NCI-H226 lung)?
A: > 100 µM

Q: And the TGI (OVCAR-3 ovarian)?
A: > 100 µM

Q: What about the TGI (LOX IMVI melanoma) of the same compound?
A: > 100 µM

Q: What about the TGI (OVCAR-5 ovarian) of the same compound?
A: 99.5 µM

Q: What about the TGI (NCI-H522 lung) of the same compound?
A: 8.07 µM

Q: And the TGI (COLO 205 colon)?
A: > 100 µM

Q: And the TGI (SF-268 CNS)?
A: > 100 µM

Q: And the TGI (SF-295 CNS)?
A: 15.5 µM

Q: What does the source list for `CC(C)/C=C1\CCC(CN2CCOCC2)C1=O` (stereo unspecified)?
A: TGI (HCC-2998 colon): 36.5 µM; TGI (NCI-H226 lung): 94.8 µM; TGI (OVCAR-3 ovarian): 32.7 µM; TGI (LOX IMVI melanoma): 53.6 µM; TGI (OVCAR-5 ovarian): 39.4 µM; TGI (NCI-H522 lung): 3.8 µM; TGI (COLO 205 colon): 22.3 µM; TGI (SF-268 CNS): 52.5 µM; TGI (SF-295 CNS): > 77.7 µM

Q: `CCC[CH2][Sn]([CH2]CCC)([O]C(=O)c1cc(OC)c(OC)cc1OC)[O][Sn]([CH2]CCC)([CH2]CCC)[O]C(=O)c1cc(OC)c(OC)cc1OC` was tested. Which GI50 (HCC-2998 colon) did it give?
A: 1.1 µM

Q: And the TGI (HCC-2998 colon)?
A: 2.41 µM

Q: And the GI50 (NCI-H226 lung)?
A: 0.507 µM

Q: What about the TGI (NCI-H226 lung) of the same compound?
A: 1.08 µM

Q: What about the GI50 (OVCAR-3 ovarian) of the same compound?
A: 0.798 µM

Q: And the TGI (OVCAR-3 ovarian)?
A: 2.07 µM

Q: What about the GI50 (LOX IMVI melanoma) of the same compound?
A: 0.257 µM

Q: What about the TGI (LOX IMVI melanoma) of the same compound?
A: 0.782 µM

Q: What about the GI50 (OVCAR-5 ovarian) of the same compound?
A: 1.75 µM

Q: What about the TGI (OVCAR-5 ovarian) of the same compound?
A: 3.14 µM

Q: What about the TGI (NCI-H522 lung) of the same compound?
A: 0.0556 µM

Q: And the GI50 (COLO 205 colon)?
A: 0.381 µM

Q: What about the TGI (COLO 205 colon) of the same compound?
A: 1.32 µM

Q: What about the GI50 (SF-268 CNS) of the same compound?
A: 0.27 µM

Q: What about the TGI (SF-268 CNS) of the same compound?
A: 0.972 µM

Q: And the GI50 (SF-295 CNS)?
A: 1.1 µM

Q: And the TGI (SF-295 CNS)?
A: 2.41 µM

Q: Which results are given for `C/C(CC(=O)NCCc1ccccc1)=N\NS(=O)(=O)c1ccc(C)cc1`?
A: TGI (HCC-2998 colon): > 100 µM; TGI (NCI-H226 lung): > 100 µM; TGI (OVCAR-3 ovarian): > 100 µM; TGI (LOX IMVI melanoma): > 100 µM; TGI (OVCAR-5 ovarian): > 100 µM; TGI (NCI-H522 lung): > 100 µM; TGI (COLO 205 colon): > 100 µM; TGI (SF-268 CNS): > 100 µM; TGI (SF-295 CNS): > 100 µM

Q: How did the TGI (NCI-H226 lung) turn out when `CN(C)Cc1ccc(-c2cc3onc(-c4ccccc4)c3c(=O)n2C)cc1` was run?
A: > 100 µM

Q: What about the TGI (OVCAR-3 ovarian) of the same compound?
A: > 100 µM

Q: And the TGI (LOX IMVI melanoma)?
A: 49.8 µM

Q: What about the TGI (OVCAR-5 ovarian) of the same compound?
A: > 100 µM

Q: What about the TGI (NCI/ADR-RES ovarian) of the same compound?
A: > 100 µM

Q: What about the TGI (NCI-H522 lung) of the same compound?
A: 39.5 µM

Q: And the TGI (COLO 205 colon)?
A: 41.1 µM

Q: And the TGI (SF-268 CNS)?
A: > 100 µM

Q: What about the TGI (SF-295 CNS) of the same compound?
A: 46.5 µM

Q: How did the TGI (HCC-2998 colon) turn out when `COC1C(OC(=O)c2ccc(C)[nH]2)C(O)C(Oc2ccc3c(O)c(NC(=O)c4c[nH]c(C(=O)Nc5c(O)c6ccc(OC7OC(C)(C)C(OC)C(OC(=O)c8ccc(C)[nH]8)C7O)c(C)c6oc5=O)c4C)c(=O)oc3c2C)OC1(C)C` (stereo unspecified) was run?
A: 7.26 µM

Q: And the TGI (NCI-H226 lung)?
A: 3.84 µM

Q: What about the TGI (OVCAR-3 ovarian) of the same compound?
A: 41.1 µM

Q: What about the TGI (LOX IMVI melanoma) of the same compound?
A: 9.4 µM

Q: And the TGI (OVCAR-5 ovarian)?
A: 9.96 µM

Q: And the TGI (COLO 205 colon)?
A: 4.38 µM

Q: And the TGI (SF-268 CNS)?
A: 7.44 µM

Q: And the TGI (SF-295 CNS)?
A: > 100 µM

Q: How did the TGI (HCC-2998 colon) turn out when `C/C(CC(=O)Nc1cccc(Cl)c1C)=N\NC(N)=S` was run?
A: > 100 µM

Q: And the TGI (NCI-H226 lung)?
A: > 100 µM

Q: And the TGI (OVCAR-3 ovarian)?
A: > 100 µM

Q: What about the TGI (LOX IMVI melanoma) of the same compound?
A: > 100 µM

Q: What about the TGI (OVCAR-5 ovarian) of the same compound?
A: > 100 µM

Q: And the TGI (NCI-H522 lung)?
A: > 100 µM

Q: And the TGI (COLO 205 colon)?
A: > 100 µM

Q: What about the TGI (SF-268 CNS) of the same compound?
A: > 100 µM

Q: And the TGI (SF-295 CNS)?
A: > 100 µM

Q: How did the TGI (HCC-2998 colon) turn out when `COc1ccccc1N=Nc1c(-c2ccccc2)nn(C(=O)CC(=O)Nc2cccc(C)c2)c1-c1ccccc1` was run?
A: > 100 µM

Q: And the TGI (NCI-H226 lung)?
A: > 100 µM

Q: What about the TGI (OVCAR-3 ovarian) of the same compound?
A: 53.9 µM

Q: And the TGI (LOX IMVI melanoma)?
A: > 100 µM

Q: What about the TGI (OVCAR-5 ovarian) of the same compound?
A: > 100 µM

Q: What about the TGI (NCI-H522 lung) of the same compound?
A: > 100 µM

Q: What about the TGI (COLO 205 colon) of the same compound?
A: > 100 µM

Q: What about the TGI (SF-268 CNS) of the same compound?
A: > 100 µM

Q: What about the TGI (SF-295 CNS) of the same compound?
A: > 100 µM

Q: Which TGI (HCC-2998 colon) does the source give for `CCO/C=C1\N=C(c2ccc(Cl)c(Cl)c2)OC1=O` here?
A: > 100 µM

Q: And the TGI (NCI-H226 lung)?
A: > 100 µM

Q: And the TGI (OVCAR-3 ovarian)?
A: > 100 µM

Q: And the TGI (LOX IMVI melanoma)?
A: > 100 µM

Q: What about the TGI (OVCAR-5 ovarian) of the same compound?
A: > 100 µM

Q: And the TGI (NCI-H522 lung)?
A: > 100 µM

Q: And the TGI (COLO 205 colon)?
A: > 100 µM

Q: What about the TGI (SF-268 CNS) of the same compound?
A: > 100 µM

Q: What about the TGI (SF-295 CNS) of the same compound?
A: > 100 µM

Q: For `CC(C)N(C(=O)c1cccc(C(=O)N(C(C)C)C(C)C)c1)C(C)C`, which TGI (HCC-2998 colon) is on record?
A: > 100 µM

Q: And the TGI (NCI-H226 lung)?
A: > 100 µM

Q: What about the TGI (OVCAR-3 ovarian) of the same compound?
A: > 100 µM

Q: What about the TGI (LOX IMVI melanoma) of the same compound?
A: > 100 µM

Q: And the TGI (OVCAR-5 ovarian)?
A: > 100 µM

Q: What about the TGI (NCI-H522 lung) of the same compound?
A: > 100 µM

Q: And the TGI (COLO 205 colon)?
A: > 100 µM

Q: What about the TGI (SF-268 CNS) of the same compound?
A: > 100 µM

Q: And the TGI (SF-295 CNS)?
A: > 100 µM

Q: Which TGI (HCC-2998 colon) does the source give for `C#CC1(O)CCC2C3CCc4cc(Oc5nc(F)nc(-c6c7ccccc7c7n6CCS7)n5)ccc4C3CC[C@@]21C` (stereo partly specified) here?
A: 41.7 µM

Q: And the TGI (NCI-H226 lung)?
A: 92.5 µM

Q: What about the TGI (OVCAR-3 ovarian) of the same compound?
A: 32.2 µM

Q: And the TGI (OVCAR-5 ovarian)?
A: > 100 µM

Q: And the TGI (NCI-H522 lung)?
A: 20.9 µM

Q: And the TGI (COLO 205 colon)?
A: 70 µM

Q: What about the TGI (SF-268 CNS) of the same compound?
A: > 100 µM

Q: And the TGI (SF-295 CNS)?
A: 30.1 µM

Q: Which results are given for `C=C1CC(CC)(CCN2C(=O)c3ccccc3C2=O)OC1=O` (stereo unspecified)?
A: TGI (HCC-2998 colon): 32.1 µM; TGI (NCI-H226 lung): 40.6 µM; TGI (LOX IMVI melanoma): 29.6 µM; TGI (NCI-H522 lung): 11.8 µM; TGI (COLO 205 colon): 30.3 µM; TGI (SF-268 CNS): 21.4 µM; TGI (SF-295 CNS): > 100 µM

Q: How did the TGI (HCC-2998 colon) turn out when `COc1cc(CNc2nc3c(N)cc(C(F)(F)F)cc3nc2-c2ccccc2)cc(OC)c1OC` was run?
A: > 100 µM

Q: And the TGI (NCI-H226 lung)?
A: > 100 µM

Q: What about the TGI (OVCAR-3 ovarian) of the same compound?
A: > 100 µM

Q: And the TGI (LOX IMVI melanoma)?
A: > 100 µM

Q: And the TGI (OVCAR-5 ovarian)?
A: > 100 µM

Q: And the TGI (NCI-H522 lung)?
A: 78.5 µM

Q: And the TGI (COLO 205 colon)?
A: > 100 µM

Q: What about the TGI (SF-268 CNS) of the same compound?
A: > 100 µM

Q: And the TGI (SF-295 CNS)?
A: > 100 µM
